Test results from patent publication US4480118A, “Carboxylic acid ester and an insecticidal and/or acaricidal composition containing the same” (priority 1981, dated 1984).
≈ marks a conversion by molar mass, not a printed value. Like-named read-outs stand apart in the source and are kept apart here.

Columns and labels:
[1] = test system: housefly; experiment: Insecticidal activity against housefly (Filter paper bait and contact method); assay type: in vivo; conditions: for mortality at 500 ppm: Musca domestica
Procedure: Each 20 parts of the present compounds No. 1 to No. 29, 10 parts of an emulsifier (Sorpol 3005X; trademark for Toho Chemical Co.) and 70 parts of xylene are thoroughly mixed by stirring to obtain an emulsifiable concentrate of each compound.
A piece of filter paper, 5.5 cm in diameter, was laid on the bottom of a polyethylene cup of the identical inner diameter. An emulsifiable concentrate prepared in the same manner as in Preparation Example 2 was diluted with water. To the filter paper, was added dropwise 0.7 ml of the diluted sample (500 ppm in concentration). Sucrose (30 mg) was placed on the filter paper to serve as bait. Ten adult female houseflies were released into the cup, closed with a cover, and observed for the number of dead and alive insects after 48 hours to calculate the mortality (2 replications).

[2] = test system: housefly; experiment: Insecticidal activity against housefly (Topical application method); assay type: in vivo; conditions: dorsal thorax, adult female, 24 hours
Procedure: The present compounds and the reference compounds were diluted with acetone to prescribed concentrations. Each 0.5 μl of the diluted samples was applied topically with a microsyringe onto the dorsal thorax of an adult female housefly. The flies were fed and observed for the number of dead and alive insects after 24 hours. LD50 (median lethal dose) was calculated from the mortalities at each dosage by probit method.

[3] = test system: housefly; experiment: Activity of oil spray against adult housefly (glass chamber); assay type: in vivo; conditions: oil spray 0.5 ml, 10 minutes exposure; for mortality, House fly: observed on the following day, 1440 min
Procedure: (§1) 0.1 Part of each compound Nos. 10, 12, 15, 17, 18, 19, 22, 23 and 29 of this invention is dissolved in deodorized kerosene and made up to 100 parts with kerosene to obtain an oil spray.
(§2) Ten adult houseflies and ten adult female northern house mosquitos were released in a glass chamber, 70×70×70 cm in size. An oil spray preparation (0.5 ml) obtained in Preparation Example 1 was sprayed inside the chamber and the insects were exposed to the descending mist for 10 minutes, during which time the number of knocked-down insects was counted at predetermined time intervals to determine the 50% knockdown time (KT50). On the following day, the dead and alive insects were observed.

[4] = test system: northern house mosquito; experiment: Activity of oil spray against adult female northern house mosquito (glass chamber); assay type: in vivo
Procedure: as §1, §2

[5] = test system: tobacco cutworm; experiment: Insecticidal activity against tobacco cutworm; assay type: in vivo; conditions: 24 h
Procedure: An artificial diet (15 g) for tobacco cutworm was wet with 2 ml of the prescribed aqueous dilution of an emulsifiable concentrate obtained in Preparation Example 2 or of that obtained from reference compounds. The diet thus treated was placed in a polyethylene cup of 11 cm in diameter.

[6] = test system: green rice leafhopper; experiment: Insecticidal activity against green rice leafhopper; conditions: Nephotettix cincticeps, 24 h
[7] = 500 ppm, 48 hours, adult female houseflies, read-out: Mortality
[8] = northern house mosquito, in vivo, 24 h
[9] = oil spray 0.5 ml, 10 minutes exposure
[10] = read-out: LC50 (median lethal concentration), treated artificial diet, third-instar larvae, 24 hours
[11] = read-out: Percent mortality days after spraying: 0
[12] = read-out: Percent mortality days after spraying: 3
[13] = read-out: Percent mortality days after spraying: 7
[14] = read-out: LC50 (median lethal concentration)
[15] = oil spray 0.5 ml, 10 minutes exposure, observed on the following day, 1440 min

CC1(C)[C@@H](C(=O)OC(C#N)c2cccc(Oc3ccccc3)c2)[C@]12Cc1ccccc1O2 (relative stereo) [Compound 17]
mortality at 500 ppm [1, 7]: 100% | LD50 (median lethal dose) [2]: 0.064 μg/female | KT50 (50% knockdown time), House fly [3]: 264 s | mortality, House fly [3]: 80% | mortality, Northern house mosquito [4, 8]: 100% | KT50 (50% knockdown time), Northern house mosquito [4, 9]: 330 s

CC1(C)C(C(=O)OC(C#N)c2cccc(Oc3ccccc3)c2)C12Cc1c(F)c(F)c(F)c(F)c1C2 (centres unmarked) [Compound 1]
mortality at 500 ppm [1, 7]: 100% | LD50 (median lethal dose) [2]: 0.0052 μg/female | LC50 [5, 10]: 3.5 µg/mL (≈ 7.06 µM) | mortality at 50 ppm [6, 11]: 100% | mortality at 50 ppm [6, 12]: 100% | mortality at 50 ppm [6, 13]: 86%

CC1(C)C(C(=O)OC(C#N)c2cccc(Oc3ccccc3)c2)C12Cc1ccccc1C2 (centres unmarked) [Compound 2]
mortality at 500 ppm [1, 7]: 100% | LD50 (median lethal dose) [2]: 0.0045 μg/female | LC50 [5, 10]: 2 µg/mL (≈ 4.72 µM) | mortality at 50 ppm [6, 11]: 100% | mortality at 50 ppm [6, 12]: 100% | mortality at 50 ppm [6, 13]: 100%

CC1(C)C(C(=O)OC(C#N)c2cccc(Oc3ccccc3)c2)C12Cc1ccc(Cl)cc1C2 (centres unmarked) [Compound 3]
mortality at 500 ppm [1, 7]: 100% | LD50 (median lethal dose) [2]: 0.0076 μg/female | LC50 [5, 10]: 3.3 µg/mL (≈ 7.21 µM) | mortality at 50 ppm [6, 11]: 100% | mortality at 50 ppm [6, 12]: 100% | mortality at 50 ppm [6, 13]: 100%

CC1(C)C(C(=O)OC(C#N)c2cccc(Oc3ccccc3)c2)C12Cc1ccc(F)cc1C2 (centres unmarked) [Compound 4]
mortality at 500 ppm [1, 7]: 100% | LD50 (median lethal dose) [2]: 0.0042 μg/female | LC50 [5, 10]: 1 µg/mL (≈ 2.26 µM)

CC1(C)C(C(=O)OC(C#N)c2cccc(Oc3ccccc3)c2)C12Cc1ccc(Br)cc1C2 (centres unmarked) [Compound 5]
mortality at 500 ppm [1, 7]: 100% | LD50 (median lethal dose) [2]: 0.018 μg/female | LC50 [5, 10]: 7.2 µg/mL (≈ 14.3 µM) | mortality at 50 ppm [6, 11]: 100% | mortality at 50 ppm [6, 12]: 100% | mortality at 50 ppm [6, 13]: 100%

CC1(C)C(C(=O)OC(C#N)c2cccc(Oc3ccccc3)c2)C12Cc1cccc(F)c1C2 (centres unmarked) [Compound 6]
mortality at 500 ppm [1, 7]: 100%

CC1(C)C(C(=O)OC(C#N)c2ccc(F)c(Oc3ccccc3)c2)C12Cc1ccccc1C2 (centres unmarked) [Compound 7]
mortality at 500 ppm [1, 7]: 100% | LD50 (median lethal dose) [2]: 0.0044 μg/female | LC50 [5, 10]: 1.8 µg/mL (≈ 4.08 µM) | mortality at 50 ppm [6, 11]: 100% | mortality at 50 ppm [6, 12]: 100% | mortality at 50 ppm [6, 13]: 100%

CC1(C)C(C(=O)O[C@H](C#N)c2cccc(Oc3ccccc3)c2)C12Cc1ccccc1C2 (some centres unmarked) [Compound 8]
mortality at 500 ppm [1, 7]: 100% | LD50 (median lethal dose) [2]: 0.0032 μg/female | LC50 [5, 10]: 1.1 µg/mL (≈ 2.6 µM)

CC1(C)C(C(=O)O[C@H](C#N)c2cccc(Oc3ccccc3)c2)C12Cc1ccccc1C2 (some centres unmarked) [Compound 9]
Mortality ([1]; 500 ppm, 48 hours, adult female houseflies): 100% | LD50 (median lethal dose) [2]: 0.0013 μg/female | LC50 (median lethal concentration) ([5]; tobacco cutworm, in vivo): 0.6 ppm

CC1(C)C(C(=O)OCc2coc(Cc3ccccc3)c2)C12Cc1ccccc1C2 (centres unmarked) [Compound 11]
mortality at 500 ppm [1, 7]: 100% | LD50 (median lethal dose) [2]: 0.023 μg/female

CC1(C)C(C(=O)OCN2C(=O)C3=C(CCCC3)C2=O)C12Cc1ccccc1C2 (centres unmarked) [Compound 12]
mortality at 500 ppm [1, 7]: 100% | KT50 (50% knockdown time), House fly [3]: 125 s | mortality, House fly [3]: 10% | mortality, Northern house mosquito [4, 8]: 95% | KT50 (50% knockdown time), Northern house mosquito [4, 9]: 400 s

CC1(C)C(C(=O)OCc2cccc(Cc3ccccc3)c2)C12Cc1ccccc1C2 (centres unmarked) [Compound 13]
mortality at 500 ppm [1, 7]: 100% | mortality at 50 ppm [6, 11]: 100% | mortality at 50 ppm [6, 12]: 93% | mortality at 50 ppm [6, 13]: 100%

C#CC(OC(=O)C1C(C)(C)C12Cc1ccccc1C2)C(C)=CCC (centres unmarked) [Compound 14]
mortality at 500 ppm [1, 7]: 100%

CC1(C)C(C(=O)OC(C#N)c2cccc(Oc3ccc(Br)cc3)c2)C12Cc1ccccc1C2 (centres unmarked) [Compound 16]
mortality at 500 ppm [1, 7]: 100% | mortality at 50 ppm [6, 11]: 100% | mortality at 50 ppm [6, 12]: 100% | mortality at 50 ppm [6, 13]: 97%

CC1(C)C(C(=O)OC(C#N)c2cccc(Oc3ccccc3)c2)C12Cc1ccccc12 (centres unmarked) [Compound 19]
mortality at 500 ppm ([1]; 48 h): 100% | LC50 [5, 14]: 5 µg/mL (≈ 12.2 µM) | KT50 (50% knockdown time), House fly [3]: 600 s | mortality, House fly [3]: 80% | KT50 (50% knockdown time), Northern house mosquito [4, 9]: 492 s | mortality, Northern house mosquito [4, 15]: 100%

CC1(C)C(C(=O)OC(C#N)c2ccc(F)c(Oc3ccccc3)c2)C12Cc1ccccc12 (centres unmarked) [Compound 20]
mortality at 500 ppm ([1]; 48 h): 100% | mortality at 50 ppm [6, 11]: 100% | mortality at 50 ppm [6, 12]: 100% | mortality at 50 ppm [6, 13]: 90%

CC1(C)C(C(=O)OCc2cccc(Oc3ccccc3)c2)C12Cc1ccccc1C2 (centres unmarked) [Compound 21]
mortality at 500 ppm [1, 7]: 100%

C#CCN1CC(=O)N(COC(=O)C2C(C)(C)C23Cc2ccccc2C3)C1=O (centres unmarked) [Compound 22]
mortality at 500 ppm [1, 7]: 100% | KT50 (50% knockdown time), House fly [3]: 80 s | mortality, House fly [3]: 90% | mortality, Northern house mosquito [4, 8]: 10% | KT50 (50% knockdown time), Northern house mosquito [4, 9]: 344 s

C#CCC=C(C)C(C#C)OC(=O)C1C(C)(C)C12Cc1ccccc1C2 (centres unmarked) [Compound 23]
mortality at 500 ppm [1, 7]: 100% | LD50 (median lethal dose) [2]: 0.045 μg/female | KT50 (50% knockdown time), House fly [3]: 388 s | mortality, House fly [3]: 60% | mortality, Northern house mosquito [4, 8]: 70% | KT50 (50% knockdown time), Northern house mosquito [4, 9]: 360 s

C#CC(C#C)OC(=O)C1C(C)(C)C12Cc1ccccc1C2 (centres unmarked) [Compound 24]
mortality at 500 ppm [1, 7]: 100%

CC1(C)C(C(=O)OCC=C(Cl)Cc2ccccc2)C12Cc1ccccc1C2 (centres unmarked) [Compound 25]
mortality at 500 ppm [1, 7]: 100% | LC50 [5, 10]: 4 µg/mL (≈ 10.5 µM)

C=CCc1cccc2c1CCC2OC(=O)C1C(C)(C)C12Cc1ccc(F)cc1C2 (centres unmarked) [Compound 26]
mortality at 500 ppm [1, 7]: 100%

CC1(C)C(C(=O)OCc2c(Cl)c(Cl)c(Cl)c(Cl)c2Cl)C12Cc1ccccc1C2 (centres unmarked) [Compound 28]
mortality at 500 ppm [1, 7]: 100% | LC50 ([5]; treated artificial diet, third-instar larvae, 24 hours, read-out: LC50 (median lethal concentration)): 8.7 µg/mL (≈ 18.2 µM)

CC1(C)C(C(=O)OC2C=C(Cc3ccccc3)C(=O)C2)C12Cc1ccccc1C2 (centres unmarked) [Compound 29]
mortality at 500 ppm [1, 7]: 100% | KT50 (50% knockdown time), House fly [3]: 298 s | mortality, House fly [3]: 40% | mortality, Northern house mosquito [4, 8]: 70% | KT50 (50% knockdown time), Northern house mosquito [4, 9]: 296 s

CNC(=O)Oc1cccc2ccccc12 [NAC, 1naphthyl N--methylcarbamate, reference compound]
mortality at 250 ppm [6, 11]: 50%

CC(C)=CC1C(C(=O)OCc2cccc(Oc3ccccc3)c2)C1(C)C (centres unmarked) [drawing 58, reference compound]
LD50 (median lethal dose) [2]: 0.26 μg/female

CC1(C)C(C(=O)OC(C#N)c2cccc(Oc3ccccc3)c2)C12C=Cc1ccccc12 (centres unmarked) [drawing 61, reference compound]
LD50 (median lethal dose) [2]: 0.16 μg/female

CC(C)=CC1C(C(=O)OCc2cccc(Oc3ccccc3)c2)C1(C)C (centres unmarked) [drawing 62, reference compound]
LC50 [5, 14]: 24 µg/mL (≈ 68.5 µM)

CC1(C)C(C(=O)OC(C#N)c2cccc(Oc3ccccc3)c2)C12C=Cc1ccccc12 (centres unmarked) [drawing 63, reference compound]
LC50 [5, 14]: 46.1 µg/mL (≈ 109 µM)

CC1(C)C(C(=O)OC(C#N)c2cccc(Oc3ccccc3)c2)C12C=Cc1ccccc12 (centres unmarked) [drawing 64, reference compound]
KT50 (50% knockdown time), House fly [3]: > 600 s | KT50 (50% knockdown time), Northern house mosquito [4, 9]: 600 s | mortality, Northern house mosquito [4, 15]: 50%

CC(C)=CC1C(C(=O)OC(C#N)c2cccc(Oc3ccccc3)c2)C1(C)C (centres unmarked) [reference compound]
LD50 (median lethal dose) [2]: 0.079 μg/female
